Assays:
Adenosine receptor A2b = target: T1, Adenosine receptor A2b (Homo sapiens, UniProt P29275); experiment: Displacement of [3H]ZM241385 from human adenosine A2b receptor expressed in HEK cells; assay type: cell-based, HEK293
T1 sequence (P29275 whole entry): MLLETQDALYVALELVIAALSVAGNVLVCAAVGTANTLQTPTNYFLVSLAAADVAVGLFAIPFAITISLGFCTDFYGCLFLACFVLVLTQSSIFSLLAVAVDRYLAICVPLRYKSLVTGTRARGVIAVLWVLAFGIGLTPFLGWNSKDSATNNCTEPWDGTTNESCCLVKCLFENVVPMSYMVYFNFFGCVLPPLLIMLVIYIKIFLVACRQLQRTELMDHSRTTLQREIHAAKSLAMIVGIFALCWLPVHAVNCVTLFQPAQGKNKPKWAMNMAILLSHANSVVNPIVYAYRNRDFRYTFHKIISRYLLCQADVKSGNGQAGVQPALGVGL

Adenosine receptor A2a = Adenosine receptor A2a (Homo sapiens, UniProt P29274); experiment: Displacement of [3H]ZM-241385 from human adenosine A2a receptor expressed in HEK cells; assay type: cell-based, HEK293
Chain of Adenosine receptor A2a (P29274 whole entry): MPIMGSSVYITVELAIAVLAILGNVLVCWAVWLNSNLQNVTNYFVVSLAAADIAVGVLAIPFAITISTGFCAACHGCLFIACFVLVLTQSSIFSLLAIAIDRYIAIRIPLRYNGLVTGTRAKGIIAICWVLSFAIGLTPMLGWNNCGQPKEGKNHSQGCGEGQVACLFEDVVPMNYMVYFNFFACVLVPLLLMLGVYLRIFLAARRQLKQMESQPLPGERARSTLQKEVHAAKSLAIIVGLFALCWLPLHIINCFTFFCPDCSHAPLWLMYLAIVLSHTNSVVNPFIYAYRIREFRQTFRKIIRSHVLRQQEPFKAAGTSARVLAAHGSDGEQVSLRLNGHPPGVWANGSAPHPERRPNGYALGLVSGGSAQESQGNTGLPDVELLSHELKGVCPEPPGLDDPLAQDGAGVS

Adenosine receptor A1 = target: T2, Adenosine receptor A1 (Homo sapiens, UniProt P30542); experiment: Displacement of [3H]CPX from human adenosine A1 receptor expressed in CHO cells
T2 sequence (P30542 whole entry): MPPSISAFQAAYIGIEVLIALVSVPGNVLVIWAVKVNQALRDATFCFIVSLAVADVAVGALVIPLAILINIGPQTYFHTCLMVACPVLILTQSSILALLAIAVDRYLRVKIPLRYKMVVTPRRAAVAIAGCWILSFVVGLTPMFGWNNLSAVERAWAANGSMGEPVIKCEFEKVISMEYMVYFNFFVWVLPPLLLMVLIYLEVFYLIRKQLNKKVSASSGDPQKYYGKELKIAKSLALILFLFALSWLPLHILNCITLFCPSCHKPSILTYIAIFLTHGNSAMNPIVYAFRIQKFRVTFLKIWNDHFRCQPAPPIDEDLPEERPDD

[1] = target: Adenosine receptors; A1 & A2b (Homo sapiens) (UniProt P30542+P29275); experiment: Selectivity for human adenosine A2b receptor over adenosine A1 receptor; assay type: protein assay
[2] = target: Adenosine A2 receptor (Homo sapiens) (UniProt P29275+P29274); experiment: Selectivity for human adenosine A2b receptor over adenosine A2a receptor; assay type: protein assay

Row | Compound | Ki (Adenosine receptor A2b) | Ki (Adenosine receptor A2a) | Ki (Adenosine receptor A1) | Ratio Ki [1] | Ratio Ki [2]
1 | CCCn1c(=O)c2[nH]c(-c3cnn(Cc4cc(F)ccc4Cl)c3)nc2n(CCC)c1=O | 4800 nM |  |  |  | 
2 | CCCn1c(=O)c2[nH]c(-c3cnn(Cc4ccccc4C)c3)nc2n(CCC)c1=O | 33 nM | 51 nM | 22 nM |  | 
3 | CCCn1c(=O)c2nc(-c3cnn(Cc4cccc(C)c4F)c3)[nH]c2n(CCC)c1=O |  |  |  | 9 | 10
4 | CCn1c(=O)c2nc(-c3cnn(Cc4cccc(C(F)(F)F)c4)c3)[nH]c2n(CC)c1=O | 13 nM | 450 nM | 570 nM | 44 | 34
5 | CCCn1c(=O)c2nc(-c3cnn(Cc4ccc(Cl)c(C(F)(F)F)c4)c3)[nH]c2n(CCC)c1=O | 200 nM |  |  |  | 
6 | CCCn1c(=O)c2[nH]c(-c3cnn(Cc4ccccc4F)c3)nc2n(CCC)c1=O | 28 nM | 60 nM | 19 nM |  | 
7 | CCCn1c(=O)c2[nH]c(-c3cnn(Cc4cccc(C)c4F)c3)nc2n(CCC)c1=O | 44 nM | 460 nM | 390 nM |  | 
8 | CCCn1c(=O)c2nc(-c3cnn(Cc4cc(Cl)ccc4Cl)c3)[nH]c2n(CCC)c1=O |  |  |  | 6 | 2
9 | CCCn1c(=O)c2nc(-c3cnn(Cc4ccc(F)cc4F)c3)[nH]c2n(CCC)c1=O | 700 nM |  |  |  | 
10 | CCCn1c(=O)c2[nH]c(-c3cc(C)nn3C)nc2n(CCC)c1=O | 3700 nM |  |  |  | 
11 | CCCn1c(=O)c2nc(-c3cnn(Cc4ccccc4C)c3)[nH]c2n(CCC)c1=O |  |  |  | 0.6 | 2
12 | CCCn1c(=O)c2nc(-c3cnn(Cc4ccc(OC)cc4)c3)[nH]c2n(CCC)c1=O |  |  |  | 2 | 1
13 | CCCn1c(=O)c2[nH]c(-c3cnn(Cc4cc(C(F)(F)F)cc(Cl)c4F)c3)nc2n(CCC)c1=O | 360 nM |  |  |  | 
14 | CCCn1c(=O)c2[nH]c(-c3cnn(Cc4ccccc4OC)c3)nc2n(CCC)c1=O | 37 nM | 140 nM | 59 nM |  | 
15 | CCCn1c(=O)c2nc(-n3cccn3)[nH]c2n(CCC)c1=O | > 5800 nM |  |  |  | 
16 | CCCn1c(=O)c2nc(-c3cc(C)nn3CC)[nH]c2n(CCC)c1=O | 2100 nM |  |  |  | 
17 | CCCn1c(=O)[nH]c(=O)c2[nH]cnc21 [ENPROFYLLINE] |  |  | 42000 nM |  | 
18 | CCCn1c(=O)c2nc(-c3cnn(Cc4ccccc4F)c3)[nH]c2n(CCC)c1=O |  |  |  | 0.6 | 2
19 | CCCn1c(=O)c2[nH]c(-c3cnn(Cc4ccc(C)cc4)c3)nc2n(CCC)c1=O | 40 nM | 80 nM | 38 nM |  | 
20 | CCCn1c(=O)c2nc(-c3cnn(Cc4c(F)cccc4F)c3)[nH]c2n(CCC)c1=O | 390 nM |  |  |  | 
21 | CCCn1c(=O)c2c(nc(-n3cccn3)n2Cc2ccccc2)n(CCC)c1=O | > 5800 nM |  |  |  | 
22 | CCCn1c(=O)c2nc(-c3cnn(Cc4ccccc4C(F)(F)F)c3)[nH]c2n(CCC)c1=O |  |  |  | 1 | 6
23 | CCCn1c(=O)c2nc(-c3cnn(Cc4ccccc4Cl)c3)[nH]c2n(CCC)c1=O | 20 nM | 49 nM | 59 nM | 3 | 
24 | CCn1c(=O)c2nc(-c3cnn(Cc4ccccc4)c3)[nH]c2n(CC)c1=O |  |  |  | 30 | 6
25 | CC(C)Cn1c(=O)c2nc(-c3cnn(Cc4cccc(F)c4)c3)[nH]c2n(CC(C)C)c1=O |  |  |  | 1 | 1
26 | CC(C)Cn1c(=O)c2[nH]c(-c3cnn(Cc4ccccc4)c3)nc2n(CC(C)C)c1=O | 1250 nM | 1100 nM | 620 nM |  | 
27 | CCCn1c(=O)c2nc(-c3ccnn3-c3ccccc3)[nH]c2n(CCC)c1=O | 1100 nM |  |  |  | 
28 | CCCn1c(=O)c2[nH]c(-c3cnn(Cc4ccc(F)cc4)c3)nc2n(CCC)c1=O | 22 nM | 120 nM | 23 nM |  | 

Row | Compound | Ki (Adenosine receptor A2b) | Ki (Adenosine receptor A2a) | Ki (Adenosine receptor A1) | Ratio Ki [1] | Ratio Ki [2]
29 | CCCn1c(=O)c2[nH]c(-c3cnn(Cc4ccc(F)c(C(F)(F)F)c4)c3)nc2n(CCC)c1=O | 640 nM |  |  |  | 
30 | CC(C)Cn1c(=O)c2[nH]c(-c3cnn(Cc4cccc(F)c4)c3)nc2n(CC(C)C)c1=O | 990 nM | 1300 nM | 830 nM |  | 
31 | CCCn1c(=O)c2nc(-c3cnn(Cc4ccc(F)cc4)c3)[nH]c2n(CCC)c1=O |  |  |  | 1 | 5
32 | CCCn1c(=O)c2nc(-c3cnn(Cc4ccccc4OC)c3)[nH]c2n(CCC)c1=O |  |  |  | 2 | 4
33 | CCCn1c(=O)c2c(nc(-n3cc(I)cn3)n2Cc2ccccc2)n(CCC)c1=O | > 5800 nM |  |  |  | 
34 | CC(C)Cn1c(=O)c2[nH]c(-c3cnn(Cc4cccc(C(F)(F)F)c4)c3)nc2n(CC(C)C)c1=O | 300 nM | 4300 nM | 3100 nM |  | 
35 | CCCn1c(=O)c2nc(-c3cnn(-c4ccccc4)c3C(F)(F)F)[nH]c2n(CCC)c1=O | > 6600 nM |  |  |  | 
36 | CCCn1c(=O)c2[nH]c(-c3cnn(Cc4cccc(F)c4F)c3)nc2n(CCC)c1=O | 240 nM |  |  |  | 
37 | CCCn1c(=O)c2nc(-c3cnn(-c4ccccc4)c3C)[nH]c2n(CCC)c1=O | > 4100 nM |  |  |  | 
38 | CCn1c(=O)c2[nH]c(-c3cnn(Cc4ccccc4)c3)nc2n(CC)c1=O | 19 nM | 120 nM | 580 nM |  | 
39 | CCCn1c(=O)c2[nH]c(-c3cnn(-c4ccccc4)c3)nc2n(CCC)c1=O | 310 nM | 560 nM | 770 nM |  | 
40 | CCCn1c(=O)c2nc(-c3cnn(Cc4ccc(C)cc4)c3)[nH]c2n(CCC)c1=O |  |  |  | 1 | 2
41 | CC(C)Cn1c(=O)c2nc(-c3cnn(Cc4cccc(C(F)(F)F)c4)c3)[nH]c2n(CC(C)C)c1=O |  |  |  | 10 | 14
42 | CCCn1c(=O)c2nc(-c3cnn(Cc4c(F)cc(F)cc4F)c3)[nH]c2n(CCC)c1=O | 650 nM |  |  |  | 
43 | CCCn1c(=O)c2[nH]c(-c3cnn(Cc4cc(Cl)ccc4Cl)c3)nc2n(CCC)c1=O | 29 nM | 70 nM | 190 nM |  | 
44 | CCCc1c(-c2nc3c([nH]2)c(=O)n(CCC)c(=O)n3CCC)cnn1-c1ccccc1 | > 6600 nM |  |  |  | 
45 | CCCn1c(=O)c2[nH]c(-c3cnn(Cc4cccc(C)c4)c3)nc2n(CCC)c1=O | 36 nM | 66 nM | 48 nM |  | 
46 | CC(C)Cn1c(=O)c2nc(-c3cnn(Cc4ccccc4)c3)[nH]c2n(CC(C)C)c1=O |  |  |  | 0.5 | 1
47 | CCCn1c(=O)c2[nH]c(-c3cnn(Cc4ccc(OC)cc4)c3)nc2n(CCC)c1=O | 37 nM | 61 nM | 70 nM |  | 
48 | CCCCn1c(=O)c2nc(-c3cnn(Cc4ccccc4)c3)[nH]c2n(CCCC)c1=O |  |  |  | 1 | 1
49 | CCCn1c(=O)c2nc(-c3cnn(Cc4ccc(OC)c(C(F)(F)F)c4)c3)[nH]c2n(CCC)c1=O | 410 nM |  |  |  | 
50 | CCCn1c(=O)c2nc(-c3cnn(Cc4cccc(C)c4)c3)[nH]c2n(CCC)c1=O |  |  |  | 1 | 2
51 | CCCn1c(=O)c2[nH]c(-c3cnn(Cc4ccccc4C(F)(F)F)c3)nc2n(CCC)c1=O | 37 nM | 230 nM | 44 nM |  | 
52 | CCCCn1c(=O)c2[nH]c(-c3cnn(Cc4ccccc4)c3)nc2n(CCCC)c1=O | 980 nM | 890 nM | 1400 nM |  | 
53 | CCCn1c(=O)c2[nH]c(-c3cnn(Cc4cc(C(F)(F)F)cc(C(F)(F)F)c4)c3)nc2n(CCC)c1=O | 350 nM |  |  |  | 
54 | CCCn1c(=O)c2nc(-c3cnn(-c4ccccc4)c3)[nH]c2n(CCC)c1=O |  |  |  | 2 | 2
55 | CCCn1c(=O)c2[nH]c(-c3cnn(-c4ccc(Cl)cc4)c3C(F)(F)F)nc2n(CCC)c1=O | > 6600 nM |  |  |  | 

Source: ChEMBL document CHEMBL1148648, “Novel 1,3-disubstituted 8-(1-benzyl-1H-pyrazol-4-yl) xanthines: high affinity and selective A2B adenosine receptor antagonists” (J Med Chem, 2006)
